tested on: endogenous serotonin in the brain; experiment: biochemical assay of endogenous serotonin in the brain of rats after oral administration of a single dose; format: in vivo; conditions: orally, single dose of 10 mg/kg, Wistar male adult rats
Procedure: The compounds according to the invention show remarkable pharmacological activities, in particular on the central nervous system. These assays were carried out after administration orally of a single dose of 10 mg/kg in Wistar male adult rats.

Row | SMILES | % increase of brain serotonin [%]
1 | CCCCCCCCCCCCOC(=O)COC(=O)[C@@H](N)Cc1c[nH]c2ccc(O)cc12 [Example 13b, n-dodecyl L-2-[3-(5-hydroxy 3-indolyl) 2-aminopropionyloxy]acetate] | 26
2 | CCCCCCCCOC(=O)COC(=O)[C@@H](N)Cc1c[nH]c2ccc(O)cc12 [Example 12b, n-octyl L-2-[3-(5-hydroxy 3-indolyl) 2-aminopropionyloxy]acetate] | 15
3 | N[C@@H](Cc1c[nH]c2ccc(O)cc12)C(=O)O [(L)5 HTP, 5-hydroxy-tryptophane, reference compound] | 10
4 | N[C@@H](Cc1c[nH]c2ccc(O)cc12)C(=O)OCC(=O)OCC12CC3CC(CC(C3)C1)C2 [Example 15b, 1-adamantyl methyl L-2-[3-(5-hydroxy 3-indolyl) 2-aminopropionyloxy]acetate] | 17
5 | CCCCOC(=O)COC(=O)[C@@H](N)Cc1c[nH]c2ccc(O)cc12 [Example 8b, n-butyl L-2-[3-(5-hydroxy 3-indolyl) 2-aminopropionyloxy]acetate] | 20
6 | CC(OC(=O)COC(=O)[C@@H](N)Cc1c[nH]c2ccc(O)cc12)C(C)(C)C (stereo partly drawn) [Example 14c, (3,3-dimethyl) 2-butyl L-2-[3-(5-hydroxy 3-indolyl) 2-aminopropionyloxy]acetate] | 32
7 | CCOC(=O)COC(=O)[C@@H](N)Cc1c[nH]c2ccc(O)cc12 [Example 6b, Ethyl L-2-[3-(5-hydroxy 3-indolyl) 2-aminopropionyloxy]acetate] | 22

tested on: not listed separately; experiment: acute toxicity in the mouse (LD50); conditions: in vivo, po, orally
Procedure: The acute toxicities of the derivatives according to the invention in the mouse are very much less than those of L 5-HTP. Thus the LD50's of all of the compounds according to the invention are higher than 1250 mg/kg, whereas the LD50 (orally) of L 5-HTP is equal to 700 mg/kg.

Row | SMILES | LD50 [mg/kg]
8 | N[C@@H](Cc1c[nH]c2ccc(O)cc12)C(=O)O [(L)5 HTP, 5-hydroxy-tryptophane, reference compound] | 700
